US10369186B2, “Method of treating decline in brain function comprising coadministration of citrulline and glutathione” (KYOWA HAKKO BIO CO., LTD., priority 2012, dated 2019)

Tests used:
C57BL/6J mice [1] = experiment: Y-maze test (spontaneous alternation behavior) after bilateral common carotid arteries occlusion; assay type: in vivo; settings: oral, 7 days, FIG. 1
Method: (§1) Experimental Example: 10-week-old male C57BL/6J mice (CLEA Japan, Inc. approximately 25 g of average body weight per mouse) were preliminarily acclimated for 1 week, and provided for experiments. Citrulline and glutathione were obtained from KYOWA HAKKO BIO CO., LTD.
(§2) C57BL/6J mice were divided into a sham-operation group (Group 1) and a bilateral common carotid arteries occlusion group, which was performed under halothane anesthesia for 20 minutes. One day after reperfusion, the bilateral common carotid arteries occlusion group was further divided into a distilled water-treated group (Group 2), a low-dose citrulline-treated group (40 mg/kg: Group 3), a low-dose glutathione-treated group (40 mg/kg: Group 4), a high-dose citrulline-treated group (100 mg/kg: Group 5), a high-dose glutathione-treated group (100 mg/kg: Group 6), and a combination treatment group of a low dose of citrulline and a low dose of glutathione (each 40 mg/kg: Group 7). Each sample was orally administered for 12 days. One week after starting administration, learning memory-improving effects were examined by a Y-maze test, a passive avoidance test, and a novel object recognition test. After evaluating learning memory functions, the hippocampus was removed and viability of hippocampal nerve cells was evaluated.
In the Y-maze test, a Y-maze apparatus with three arms (50×16×32 cm) was used. Mice were placed at any one arm of the Y-maze and were allowed to explore freely through the maze for 8 minutes. The sequence of arm entries was recorded. The number of entries into each arm was counted during the measurement time, which was defined as the total number of entries. Of them, the successive entry into the three different arms was examined, and this number was defined as the spontaneous alternation behavior number. The spontaneous alternation behavior number was divided by (the total number of arm entries minus two), and then multiplied by 100, which was defined as the spontaneous alternation behavior rate (Alternation) and used as an index for spontaneous alternation behavior.

C57BL/6J mice [2] = experiment: Passive avoidance test after bilateral common carotid arteries occlusion; assay type: in vivo; settings: oral, 7 days, FIG. 2
Method: as §1, §2
The passive avoidance test was performed using a box consisting of dark (25×25×25 cm) and light compartments (14×10×25 cm) and being equipped with an electrical stimulation apparatus at the bottom of the dark compartment. During training, as soon as the mouse entered the dark compartment from the light compartment, the door was closed, and an electrical stimulation (0.3 mA, for 2 seconds) was delivered. Twenty four hours after training, the mouse was placed again in the light compartment, and the latency time spent in the light compartment was recorded with a maximum latency of 300 seconds.

C57BL/6J mice [3] = experiment: Novel object recognition test after bilateral common carotid arteries occlusion; assay type: in vivo; settings: oral, 7 days, FIG. 3
Method: as §1, §2
The novel object recognition test was performed after mice were individually acclimated to the open field apparatus (35×25×35 cm) for 2 days. During training, mice were allowed to explore freely for 10 minutes in an apparatus where two identical objects were symmetrically placed. After 1 hour, one object was replaced by a novel object, and mice were allowed to explore freely for 5 minutes. Object exploration was defined as standing on the objects, touching the object with the nose, or sniffing the object within 1 cm from the object. A ratio of the frequency of exploring the familiar or novel object over the total exploration frequency was calculated, and used as an index for visual recognition memory.

hippocampal nerve cells = experiment: Evaluation of viability of hippocampal nerve cells after bilateral common carotid arteries occlusion; assay type: in vivo, mice; settings: oral, 12 days, CA1 pyramidal cell layer, FIG. 4
Method: as §1, §2
Twelve days after bilateral occlusion of the common carotid arteries, mice were anesthetized with pentobarbital sodium, and perfused with ice-cold phosphate buffer (PBS, pH 7.4) until the blood in the body was completely removed. Immediately, mice were perfused with a fixative solution containing 4% paraformaldehyde. The brain tissues were fixed at 4° C. for 24 hours, and coronal sections having a thickness of 50 μm were prepared. Serial sections containing the hippocampus were stained with propidium iodide (PI, 5 μmol/L) dissolved in PBS and observed under a fluorescent microscope. Surviving and non-surviving nerve cells in the CA1 pyramidal cell layer of the hippocampus were counted at 1.4 to 1.8 mm posterior to bregma, and cells with PI-positive nuclei and typical morphological characteristics were defined as […]. The cell viability was calculated from a ratio to the average number of surviving nerve cells in Group 1.

[4] = high dose 100 mg/kg alone (Group 5 citrulline, Group 6 glutathione)
[5] = low dose 40 mg/kg alone (Group 3 citrulline, Group 4 glutathione), vs distilled water Group 2
[6] = low dose 40 mg/kg alone (Group 3 citrulline, Group 4 glutathione), vs Group 2
[7] = low dose 40 mg/kg alone (Group 3 citrulline, Group 4 glutathione)

Compound	spontaneous alternation behavior rate (Alternation) (C57BL/6J mice [1]; [4])	spontaneous alternation behavior rate (Alternation) (C57BL/6J mice [1]; [5])	time spent in the light compartment (Latency time) (C57BL/6J mice [2]; [4])	time spent in the light compartment (Latency time) (C57BL/6J mice [2]; [6])	frequency of exploring the novel object (C57BL/6J mice [3]; [4])	frequency of exploring the novel object (C57BL/6J mice [3]; [7])	viability of hippocampal nerve cells (hippocampal nerve cells; [4])	viability of hippocampal nerve cells (hippocampal nerve cells; [6])
N[C@@H](CCC(=O)N[C@@H](CS)C(=O)NCC(=O)O)C(=O)O [glutathione]	remarkably improved effect of memory behavior	Alternation cannot be improved	remarkably improved effect of memory behavior	latency time cannot be improved	remarkably improved effect of memory behavior	frequency of exploring the novel object cannot be increased	nerve cell-protecting effect	viability of hippocampal nerve cells cannot be improved
NC(=O)NCCC[C@H](N)C(=O)O [citrulline]	remarkably improved effect of memory behavior	Alternation cannot be improved	remarkably improved effect of memory behavior	latency time cannot be improved	remarkably improved effect of memory behavior	frequency of exploring the novel object cannot be increased	nerve cell-protecting effect	viability of hippocampal nerve cells cannot be improved
